Assay results taken from publication PMC10056986 (Pharmaceuticals, 2023).

Experiments:
[1] = target: ABL1 (Homo sapiens, UniProt P00519); assay: biochemical
[2] = target: M2 (Homo sapiens, UniProt P08172); assay: cell-based
[3] = target: H2 (Homo sapiens, UniProt P25021); assay: cell-based
[4] = target: FGFR1 (Homo sapiens, UniProt P11362); assay: biochemical
[5] = target: 5HT2A (Homo sapiens, UniProt P28223); assay: cell-based
[6] = tested on: Influenza virus A/California/2/2014 (H3N2); assay: microbe, parasite or virus in culture; type: cell-based; conditions: H3N2, MDCK, read-out: EC50 (mean ± SD)
[7] = target: JNK1 (Homo sapiens, UniProt P45983); assay: biochemical
[8] = tested on: RSV long; assay: microbe, parasite or virus in culture; type: cell-based, respiratory syncytial virus; conditions: human respiratory syncytial virus, HEp-2, read-out: EC50 for Virus
[9] = tested on: influenza A virus/California/07/2009 (H1N1); design: species or system ferrets; conditions: in vivo, po, 25 mg/kg/day
[10] = target: Alpha1a (Homo sapiens, UniProt P35348); assay: cell-based
[11] = target: T1, 5HT1A (Homo sapiens, UniProt P08908); assay: cell-based
[12] = target: M3 (Homo sapiens, UniProt P20309); assay: cell-based
[13] = target: op-delta (Homo sapiens, UniProt P41143); assay: cell-based
[14] = target: MINK (Homo sapiens, UniProt Q8N4C8); assay: biochemical
[15] = target: EPHA2 (Homo sapiens, UniProt P29317); assay: biochemical
[16] = target: PKA (Homo sapiens, UniProt P17612); assay: biochemical
[17] = in vitro; conditions: African green monkey
[18] = target: TAOK2 (Homo sapiens, UniProt Q9UL54); assay: biochemical
[19] = target: D2 (Homo sapiens, UniProt P14416); assay: cell-based
[20] = tested on: Influenza virus A/Weiss/43(H1N1); assay: microbe, parasite or virus in culture; type: cell-based; conditions: H1N1, MDCK, read-out: EC50 (mean ± SD)
[21] = tested on: A/Anhui/01/2013 (H7N9); assay: microbe, parasite or virus in culture; type: cell-based, avian influenza virus; conditions: Influenza A virus, H7N9, MDCK, read-out: IC50 (mean ± SD)
[22] = target: D1 (Homo sapiens, UniProt P21728); assay: cell-based
[23] = tested on: 22 GPCR targets; type: cell-based, human; conditions: read-out: EC50 (agonistic activity)
[24] = in vitro; conditions: human
[25] = target: CB1 (Homo sapiens, UniProt P21554); assay: cell-based
[26] = target: T1, 5HT1A; assay: cell-based; remark: listed apart in the source
[27] = target: Beta2 (Homo sapiens, UniProt P07550); assay: cell-based
[28] = target: MAP4K4 (Homo sapiens, UniProt O95819); assay: biochemical
[29] = target: TNIK (Homo sapiens, UniProt Q9UKE5); assay: biochemical
[30] = target: Alpha2a (Homo sapiens, UniProt P08913); assay: cell-based
[31] = tested on: A/PR/8/34 (H1N1); design: species or system BALB/c mice; conditions: mouse, in vivo
[32] = target: Beta1 (Homo sapiens, UniProt P08588); assay: cell-based
[33] = rat, in vivo, 15 mg/kg
[34] = tested on: A/Guangzhou/39715/2014 (H5N6); assay: microbe, parasite or virus in culture; type: cell-based, avian influenza virus; conditions: unidentified influenza virus, H5N6, MDCK, read-out: IC50 (mean ± SD)
[35] = target: KDR (Homo sapiens, UniProt P35968); assay: biochemical
[36] = target: CB2 (Homo sapiens, UniProt P34972); assay: cell-based
[37] = tested on: Influenza virus A/California/07/2009 (H1N1)pdm09; assay: microbe, parasite or virus in culture; type: cell-based; conditions: H1N1, MDCK, read-out: EC50 (mean ± SD)
[38] = target: CAMK2 alpha (Homo sapiens, UniProt Q9UQM7); assay: biochemical
[39] = target: CHK1 (Homo sapiens, UniProt O14757); assay: biochemical
[40] = 10,000 nM, read-out: Inhibition at Maximum Concentration (%)

T1 sequence (P08908 whole entry): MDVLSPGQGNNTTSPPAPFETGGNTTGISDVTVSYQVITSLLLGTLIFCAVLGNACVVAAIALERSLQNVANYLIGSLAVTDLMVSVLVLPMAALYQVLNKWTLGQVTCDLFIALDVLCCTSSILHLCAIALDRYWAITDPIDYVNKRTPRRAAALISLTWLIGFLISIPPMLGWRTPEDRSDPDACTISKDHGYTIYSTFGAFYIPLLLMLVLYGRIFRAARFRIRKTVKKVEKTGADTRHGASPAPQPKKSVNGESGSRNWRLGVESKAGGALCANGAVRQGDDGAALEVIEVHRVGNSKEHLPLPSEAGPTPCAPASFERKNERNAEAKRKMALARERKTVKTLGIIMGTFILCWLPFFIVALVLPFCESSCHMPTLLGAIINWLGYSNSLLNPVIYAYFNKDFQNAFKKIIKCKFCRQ
op-delta, sequence (P41143 whole entry): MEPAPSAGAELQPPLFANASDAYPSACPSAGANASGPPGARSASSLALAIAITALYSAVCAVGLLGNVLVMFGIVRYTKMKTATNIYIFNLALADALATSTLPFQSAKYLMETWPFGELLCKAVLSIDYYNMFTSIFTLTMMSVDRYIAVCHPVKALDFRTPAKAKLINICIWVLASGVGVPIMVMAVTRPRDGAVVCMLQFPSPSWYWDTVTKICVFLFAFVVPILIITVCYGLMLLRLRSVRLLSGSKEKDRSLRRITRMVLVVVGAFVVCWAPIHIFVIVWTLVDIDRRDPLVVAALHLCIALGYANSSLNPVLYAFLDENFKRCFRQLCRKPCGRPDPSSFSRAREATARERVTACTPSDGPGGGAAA
Beta2, sequence (P07550 whole entry): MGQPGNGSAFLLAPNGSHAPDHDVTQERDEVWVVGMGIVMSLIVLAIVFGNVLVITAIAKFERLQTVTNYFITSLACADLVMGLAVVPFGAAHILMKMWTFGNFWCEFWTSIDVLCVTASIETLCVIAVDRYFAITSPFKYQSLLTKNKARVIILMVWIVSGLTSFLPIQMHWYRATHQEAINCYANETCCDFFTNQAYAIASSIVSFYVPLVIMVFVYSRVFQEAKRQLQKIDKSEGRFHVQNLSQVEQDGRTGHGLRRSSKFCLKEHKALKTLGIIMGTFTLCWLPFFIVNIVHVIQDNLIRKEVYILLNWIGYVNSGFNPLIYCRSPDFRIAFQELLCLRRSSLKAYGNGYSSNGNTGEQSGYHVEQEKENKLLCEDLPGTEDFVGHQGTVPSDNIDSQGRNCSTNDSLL
CB2, sequence (P34972 whole entry): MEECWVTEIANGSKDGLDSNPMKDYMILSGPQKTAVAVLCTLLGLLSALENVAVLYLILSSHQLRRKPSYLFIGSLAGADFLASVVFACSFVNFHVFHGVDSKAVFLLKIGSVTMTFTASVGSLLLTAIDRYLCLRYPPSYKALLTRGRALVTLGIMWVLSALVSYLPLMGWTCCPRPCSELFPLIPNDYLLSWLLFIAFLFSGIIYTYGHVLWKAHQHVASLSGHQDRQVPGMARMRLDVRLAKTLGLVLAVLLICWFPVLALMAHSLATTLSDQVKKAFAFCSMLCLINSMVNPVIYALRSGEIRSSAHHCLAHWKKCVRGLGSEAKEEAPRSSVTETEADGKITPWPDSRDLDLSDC
Alpha2a, sequence (P08913 whole entry): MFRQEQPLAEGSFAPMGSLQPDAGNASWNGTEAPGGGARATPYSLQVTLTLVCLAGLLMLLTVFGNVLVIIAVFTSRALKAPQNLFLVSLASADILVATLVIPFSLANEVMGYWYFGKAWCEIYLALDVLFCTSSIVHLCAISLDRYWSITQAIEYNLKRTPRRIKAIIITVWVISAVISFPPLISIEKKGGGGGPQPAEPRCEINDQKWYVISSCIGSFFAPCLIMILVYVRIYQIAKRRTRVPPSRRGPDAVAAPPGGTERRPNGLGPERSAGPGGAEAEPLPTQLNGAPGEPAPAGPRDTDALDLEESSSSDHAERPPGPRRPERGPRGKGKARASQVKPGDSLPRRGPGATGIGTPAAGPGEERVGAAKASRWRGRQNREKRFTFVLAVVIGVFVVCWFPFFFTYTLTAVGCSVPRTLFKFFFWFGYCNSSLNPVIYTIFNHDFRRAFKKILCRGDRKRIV
Alpha1a, sequence (P35348 whole entry): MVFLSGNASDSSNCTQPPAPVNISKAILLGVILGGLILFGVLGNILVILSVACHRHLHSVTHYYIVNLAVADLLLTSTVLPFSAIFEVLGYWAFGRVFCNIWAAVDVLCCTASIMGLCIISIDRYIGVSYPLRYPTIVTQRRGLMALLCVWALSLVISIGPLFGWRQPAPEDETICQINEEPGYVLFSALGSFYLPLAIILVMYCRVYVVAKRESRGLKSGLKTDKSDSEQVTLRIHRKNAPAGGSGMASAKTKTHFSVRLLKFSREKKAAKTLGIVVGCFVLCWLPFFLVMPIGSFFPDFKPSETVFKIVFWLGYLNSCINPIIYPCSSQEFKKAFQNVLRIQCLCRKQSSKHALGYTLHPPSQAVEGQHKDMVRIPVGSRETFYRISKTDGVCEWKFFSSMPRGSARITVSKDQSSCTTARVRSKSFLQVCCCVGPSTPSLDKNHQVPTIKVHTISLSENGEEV
Beta1, sequence (P08588 whole entry): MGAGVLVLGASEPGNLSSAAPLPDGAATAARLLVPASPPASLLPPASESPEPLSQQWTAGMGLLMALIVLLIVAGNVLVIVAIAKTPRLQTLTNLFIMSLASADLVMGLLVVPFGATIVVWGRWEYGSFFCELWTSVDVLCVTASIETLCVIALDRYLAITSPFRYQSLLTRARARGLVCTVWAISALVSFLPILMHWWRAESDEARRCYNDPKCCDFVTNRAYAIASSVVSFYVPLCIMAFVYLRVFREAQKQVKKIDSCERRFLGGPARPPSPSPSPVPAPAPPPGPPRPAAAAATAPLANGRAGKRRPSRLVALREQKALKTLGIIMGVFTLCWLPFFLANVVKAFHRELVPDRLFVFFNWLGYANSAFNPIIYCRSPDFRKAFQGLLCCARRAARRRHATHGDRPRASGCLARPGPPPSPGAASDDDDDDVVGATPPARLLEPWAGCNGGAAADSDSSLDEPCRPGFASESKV
M3, sequence (P20309 whole entry): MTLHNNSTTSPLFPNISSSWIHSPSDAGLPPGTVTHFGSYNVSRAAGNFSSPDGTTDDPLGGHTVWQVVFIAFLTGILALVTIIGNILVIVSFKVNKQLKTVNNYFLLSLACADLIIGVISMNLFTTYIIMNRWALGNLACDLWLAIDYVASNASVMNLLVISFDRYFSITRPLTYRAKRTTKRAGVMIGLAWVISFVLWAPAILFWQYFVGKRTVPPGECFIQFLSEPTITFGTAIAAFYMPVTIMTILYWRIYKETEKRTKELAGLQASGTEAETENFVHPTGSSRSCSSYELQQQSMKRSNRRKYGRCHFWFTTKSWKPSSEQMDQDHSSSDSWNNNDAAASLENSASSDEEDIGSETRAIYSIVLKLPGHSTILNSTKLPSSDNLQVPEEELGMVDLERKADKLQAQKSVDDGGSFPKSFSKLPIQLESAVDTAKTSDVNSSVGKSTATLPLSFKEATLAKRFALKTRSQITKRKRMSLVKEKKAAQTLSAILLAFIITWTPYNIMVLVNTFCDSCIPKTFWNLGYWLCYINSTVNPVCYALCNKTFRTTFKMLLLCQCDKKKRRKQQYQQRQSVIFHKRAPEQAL
CB1, sequence (P21554 whole entry): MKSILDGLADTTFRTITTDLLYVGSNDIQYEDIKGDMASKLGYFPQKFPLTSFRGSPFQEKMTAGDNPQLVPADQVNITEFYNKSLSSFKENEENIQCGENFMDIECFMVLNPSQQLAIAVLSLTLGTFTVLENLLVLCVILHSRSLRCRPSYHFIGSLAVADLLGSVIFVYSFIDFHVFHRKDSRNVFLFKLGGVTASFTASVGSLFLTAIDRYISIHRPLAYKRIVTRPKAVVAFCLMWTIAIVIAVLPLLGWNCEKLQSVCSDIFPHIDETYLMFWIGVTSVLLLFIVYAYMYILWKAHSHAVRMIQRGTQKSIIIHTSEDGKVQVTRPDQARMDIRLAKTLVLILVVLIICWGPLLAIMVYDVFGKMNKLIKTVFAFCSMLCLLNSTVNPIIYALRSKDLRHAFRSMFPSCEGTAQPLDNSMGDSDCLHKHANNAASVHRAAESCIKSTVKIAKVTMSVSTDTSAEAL
5HT2A, sequence (P28223 whole entry): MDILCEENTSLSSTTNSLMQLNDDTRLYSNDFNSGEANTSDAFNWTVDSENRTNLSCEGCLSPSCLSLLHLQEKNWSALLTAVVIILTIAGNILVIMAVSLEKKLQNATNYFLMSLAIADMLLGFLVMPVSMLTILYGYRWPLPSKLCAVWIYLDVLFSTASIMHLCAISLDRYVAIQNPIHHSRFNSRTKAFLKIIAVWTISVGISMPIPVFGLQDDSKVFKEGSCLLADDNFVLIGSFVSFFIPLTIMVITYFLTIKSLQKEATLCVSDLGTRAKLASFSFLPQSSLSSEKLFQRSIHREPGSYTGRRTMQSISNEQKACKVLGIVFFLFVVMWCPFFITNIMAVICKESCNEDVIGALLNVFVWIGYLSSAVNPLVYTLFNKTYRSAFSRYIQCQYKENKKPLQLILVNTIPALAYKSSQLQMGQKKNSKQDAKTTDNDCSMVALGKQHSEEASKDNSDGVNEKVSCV
D1, sequence (P21728 whole entry): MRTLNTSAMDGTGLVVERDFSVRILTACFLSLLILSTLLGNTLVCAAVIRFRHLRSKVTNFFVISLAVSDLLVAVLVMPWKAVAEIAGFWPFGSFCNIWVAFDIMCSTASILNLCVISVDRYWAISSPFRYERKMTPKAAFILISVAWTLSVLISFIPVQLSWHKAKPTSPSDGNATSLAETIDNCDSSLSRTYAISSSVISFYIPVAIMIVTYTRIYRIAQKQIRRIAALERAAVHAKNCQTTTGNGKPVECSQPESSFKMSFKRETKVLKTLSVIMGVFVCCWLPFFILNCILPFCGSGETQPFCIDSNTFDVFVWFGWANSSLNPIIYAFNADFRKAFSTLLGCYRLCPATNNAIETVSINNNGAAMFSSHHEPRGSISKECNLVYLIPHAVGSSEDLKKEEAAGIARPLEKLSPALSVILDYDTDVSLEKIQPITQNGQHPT

In the case of `O=C(O)[C@H]1C2CCC(CC2)[C@@H]1Nc1nc(-c2n[nH]c3ncc(F)cc23)nc(C2CC2)c1F` [ZSP1273], the IC50 [1] is reported as > 10 µM, the IC50 [2] is reported as > 10 µM and the inhibition at 10 µM [2, 40] is reported as -55.7%. The IC50 [3] was > 10 µM, the inhibition at 10 µM [3, 40] was 42.4% and the IC50 [4] was > 10 µM. For the same compound, the EC50 [5] was > 12 µM, the “Activity at Maximum Concentration (%)” value ([5]; 12,000 nM) was −21.27% and the EC50 [6] was 10 ± 0.2 pM. The IC50 [7] was > 10 µM, the EC50 [8] was > 10 µM and the “viral load in nasal lavage fluid vs vehicle” value [9] was “decreased significantly”. The IC50 [10] was > 10 µM, the inhibition at 10 µM [10, 40] was -56.5% and the EC50 [11] was > 12 µM. For the same compound, the “Activity at Maximum Concentration (%)” value ([11]; 12,000 nM) was 16.98%, the IC50 [12] was > 10 µM and the inhibition at 10 µM [12, 40] was -4.78%. The IC50 [13] was > 10 µM, the inhibition at 10 µM [13, 40] was 7.37% and the IC50 [14] was > 10 µM. The IC50 [15] was > 10 µM, the IC50 [16] was > 10 µM and the CC50 [17] was > 10 µM. The IC50 [18] was > 10 µM, the IC50 [19] was > 10 µM and the inhibition at 10 µM [19, 40] was 13.6%. The EC50 [20] was 12 ± 2 pM, the IC50 [21] was 0.000627 ± 0.000312 µM and the IC50 [22] was > 10 µM. The inhibition at 10 µM [22, 40] was -16.7%, the EC50 [23] was > 12 µM and the CC50 [24] was > 10 µM. For the same compound, the EC50 [25] was > 12 µM, the “Activity at Maximum Concentration (%)” value ([25]; 12,000 nM) was −12.1% and the IC50 [26] was > 10 µM. For the same compound, the inhibition at 10 µM [26, 40] was 19%, the IC50 [27] was > 10 µM and the inhibition at 10 µM [27, 40] was -33.2%. For the same compound, the IC50 [28] was > 10 µM, the IC50 [29] was > 10 µM and the IC50 [30] was > 10 µM. The inhibition at 10 µM [30, 40] was -9.3%, the mortality [31] was 40% and the IC50 [32] was > 10 µM. The inhibition at 10 µM [32, 40] was -22.7%, the “accumulation (AUC0-last and Cmax, day 7 vs day 1)” value [33] was “No significant accumulation” and the IC50 [34] was 0.000245 ± 3e-05 µM. The IC50 [35] was > 10 µM, the IC50 [36] was > 10 µM and the inhibition at 10 µM [36, 40] was 42%. The EC50 [37] was 20 ± 3 pM, the IC50 [38] was > 10 µM and the IC50 [39] was > 10 µM.
